Read-outs that look alike come from different tables or passages of the source.
Experiments:
Type in all cases: in vivo
[1] = tested on: Abutilon theophrasti (ABUTH); test: Pre-emergence herbicidal action against ABUTH; conditions: Dosage column 320 g/ha (title prints 3200 g/ha); scored visually after about 3 weeks; 100% = plants have died
From the text: Seeds of monocotyledonous and dicotyledonous weed plants and crop plants are placed in plastic or organic planting pots and covered with soil. The compounds of the invention, formulated in the form of wettable powders (WP) or as emulsion concentrates (EC), are then applied to the surface of the covering soil as aqueous suspension or emulsion with addition of 0.5% additive at a water application rate equivalent to 600 l/ha. After the treatment, the pots are placed in a greenhouse and kept under good growth conditions for the trial plants. After about 3 weeks, the effect of the preparations is scored visually in comparison with untreated controls as percentages. For example, 100% activity=the plants have died, 0% activity=like control plants.
Tables A1 to A13 below show the effects of selected compounds of the general formula (I) on various harmful plants and at an application rate corresponding to 320 g/ha or lower, which were obtained by the experimental procedure mentioned above. The appendices “a”, “b” and “c” give differentiation by dosage used with otherwise the same harmful plants tested.

[2] = tested on: Alopecurus myosuroides (ALOMY); test: Pre-emergence herbicidal action against ALOMY; conditions: scored visually after about 3 weeks, 100% = plants have died
Summary of the method: (§1)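 Pre-emergence soil-surface spray of compound, formulated as wettable powder or emulsion concentrate, in aqueous suspension or emulsion with 0.5% additive (600 l/ha; rate 320 g/ha or less). Activity rated visually after roughly 3 weeks in the greenhouse as a percentage of untreated controls, 0% meaning no difference.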

[3] = tested on: Amaranthus retroflexus (AMARE); test: Pre-emergence herbicidal action against AMARE; conditions: visual scoring after about 3 weeks vs untreated controls
Summary of the method: as §1

[4] = tested on: Avena fatua (AVEFA); test: Pre-emergence herbicidal action against AVEFA; conditions: visual scoring after about 3 weeks vs untreated controls
Summary of the method: as §1

[5] = tested on: Echinochloa crus-galli (ECHCG); test: Pre-emergence herbicidal action against ECHCG
Summary of the method: as §1

[6] = tested on: Lolium rigidum (LOLRI); test: Pre-emergence herbicidal action against LOLRI
Summary of the method: as §1

[7] = tested on: Matricaria inodora (MATIN); test: Pre-emergence herbicidal action against MATIN
Summary of the method: as §1

[8] = tested on: Pharbitis purpurea (PHBPU); test: Pre-emergence herbicidal action against PHBPU
Summary of the method: as §1

[9] = tested on: Polygonum convolvulus (POLCO); test: Pre-emergence herbicidal action against POLCO
Summary of the method: as §1

[10] = tested on: Setaria viridis (SETVI); test: Pre-emergence herbicidal action against SETVI
Summary of the method: as §1

[11] = tested on: Verconica persica (VERPE); test: Pre-emergence herbicidal action against VERPE
Summary of the method: as §1

[12] = tested on: Viola tricolor (VIOTR); test: Pre-emergence herbicidal action against VIOTR
Summary of the method: as §1

[13] = tested on: Abutilon theophrasti (ABUTH); test: Post-emergence herbicidal action against ABUTH; conditions: visual rating about 3 weeks after treatment vs untreated controls (100% = plants have died, 0% = like control plants)
Summary of the method: (§2)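 Post-emergence greenhouse spray, one-leaf stage, 600 l/ha water plus 0.5% additive; WP or EC formulations; application rates 320 g/ha or lower. Visual % damage vs untreated controls at ~3 weeks.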

[14] = tested on: Alopecurus myosuroides (ALOMY); test: Post-emergence herbicidal action against ALOMY; conditions: visual rating about 3 weeks after treatment vs untreated controls (100% = plants have died, 0% = like control plants)
Summary of the method: as §2

[15] = tested on: Amaranthus retroflexus (AMARE); test: Post-emergence herbicidal action against AMARE
Summary of the method: as §2

[16] = tested on: Avena fatua (AVEFA); test: Post-emergence herbicidal action against AVEFA; conditions: visual rating about 3 weeks after treatment
Summary of the method: as §2

[17] = tested on: Echinochloa crus-galli (ECHCG); test: Post-emergence herbicidal action against ECHCG
Summary of the method: as §2

[18] = tested on: Lolium rigidum (LOLRI); test: Post-emergence herbicidal action against LOLRI
Summary of the method: as §2

[19] = tested on: Pharbitis purpurea (PHBPU); test: Post-emergence herbicidal action against PHBPU
Summary of the method: as §2

[20] = tested on: Setaria viridis (SETVI); test: Post-emergence herbicidal action against SETVI
Summary of the method: as §2

[21] = tested on: Verconica persica (VERPE); test: Post-emergence herbicidal action against VERPE
Summary of the method: as §2

[22] = tested on: Oryza sativa (ORYSA); conditions: crop plant compatibility
Summary of the method: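 Test crops were treated 2 to 3 weeks after sowing, once they reached one leaf, by spraying compound in water with 0.5% additive at 600 l/ha. Visual scoring compared them with untreated controls roughly 3 weeks on, and appendices a, b and c denote different doses.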

[23] = tested on: Polygonum convolvulus (POLCO); test: Post-emergence herbicidal action against POLCO; conditions: dosage 320 g/ha
Summary of the method: as §2

[24] = tested on: Viola tricolor (VIOTR); test: Post-emergence herbicidal action against VIOTR
Summary of the method: as §2

[25] = 80 g/ha, visual rating about 3 weeks after treatment vs untreated controls (100% = plants have died, 0% = like control plants)
[26] = 80 g/ha, effect in comparison to untreated controls

| Structure (SMILES) | Pre-emergence action against ABUTH [1] | Pre-emergence action against ALOMY ([2]; 80 g/ha) | Pre-emergence action against ALOMY ([2]; 320 g/ha) | Pre-emergence action against AMARE in % ([3]; 80 g/ha) | Pre-emergence action against AMARE in % ([3]; 320 g/ha) | Pre-emergence action against AVEFA in % ([4]; 320 g/ha) | Pre-emergence action against ECHCG in % ([5]; dosage 320 g/ha) | Pre-emergence action against LOLRI in % ([6]; dosage 80 g/ha) | Pre-emergence action against LOLRI in % ([6]; dosage 320 g/ha) | Pre-emergence action against PHBPU in % ([8]; dosage 320 g/ha) | Pre-emergence action against POLCO in % ([9]; dosage 80 g/ha) | Pre-emergence action against POLCO in % ([9]; dosage 320 g/ha) | Pre-emergence action against VERPE in % ([11]; dosage 320 g/ha) | Pre-emergence action against VIOTR in % ([12]; 320 g/ha, Viola tricolor) | Pre-emergence action against VIOTR in % ([12]; dosage 80 g/ha) | Post-emergence action against ECHCG in % ([17]; dosage 80 g/ha) | Post-emergence action against LOLRI in % ([18]; dosage 80 g/ha) | Post-emergence action against PHBPU in % ([19]; dosage 80 g/ha) | Post-emergence action against SETVI in % ([20]; dosage 80 g/ha) | Post-emergence action against VERPE in % ([21]; dosage 80 g/ha) | also measured |
| --- | --- | --- | --- | --- | --- | --- | --- | --- | --- | --- | --- | --- | --- | --- | --- | --- | --- | --- | --- | --- | --- |
| COC(=O)[C@@H](C)Oc1nn(-c2ccccn2)c(-c2cncc(F)c2)c1Br [Example I-83] | 80% | 90% | 100% | 90% | 100% | 90% | 100% | 100% | 100% | 90% | 80% | 90% | 100% | 100% | 100% | 90% | 90% | 90% | 90% | 80% | Pre-emergence action against AVEFA in % ([4]; 80 g/ha): 80%; Pre-emergence action against MATIN in % ([7]; dosage 80 g/ha): 90%; Pre-emergence action against MATIN in % ([7]; dosage 320 g/ha): 100%; Pre-emergence action against PHBPU in % ([8]; dosage 80 g/ha): 80%; Pre-emergence action against SETVI in % ([10]; dosage 80 g/ha): 90%; Pre-emergence action against SETVI in % ([10]; dosage 320 g/ha): 100%; Pre-emergence action against VERPE in % ([11]; dosage 80 g/ha): 90%; Post-emergence action against ABUTH in % ([13]; 80 g/ha): 90%; Post-emergence action against ALOMY in % ([14]; 80 g/ha): 100%; Post-emergence action against AMARE in % [15, 25]: 90%; Post-emergence action against AVEFA in % ([16]; 80 g/ha): 100%; Post-emergence action against ORYSA in % ([22]; 20 g/ha, effect vs untreated controls): 0%; Post-emergence action against ORYSA in % [22, 26]: 20% |
| COC(=O)CCOC(=O)[C@@H](C)Oc1nn(-c2ccccn2)c(-c2ccc(F)nc2)c1Cl [Example I-340] | 80% | – | 100% | 90% | 100% | 90% | 100% | 100% | 100% | 80% | 80% | 90% | 100% | 100% | 100% | 80% | 90% | 90% | 80% | 80% | Pre-emergence action against AVEFA in % ([4]; 80 g/ha): 80%; Post-emergence action against ABUTH in % ([13]; 320 g/ha): 80%; Post-emergence action against ALOMY in % ([14]; 80 g/ha): 90%; Post-emergence action against ALOMY in % ([14]; 320 g/ha): 100%; Post-emergence action against AMARE in % [15, 25]: 80%; Post-emergence action against AMARE in % ([15]; 320 g/ha, visual rating about 3 weeks after treatment): 90%; Post-emergence action against AVEFA in % ([16]; 80 g/ha): 90%; Post-emergence action against AVEFA in % ([16]; 320 g/ha): 90%; Post-emergence action against ECHCG in % ([17]; dosage 320 g/ha): 90%; Post-emergence action against LOLRI in % ([18]; dosage 320 g/ha): 90%; Post-emergence action against PHBPU in % ([19]; dosage 320 g/ha): 90%; Post-emergence action against POLCO in % [23]: 90%; Post-emergence action against SETVI in % ([20]; dosage 320 g/ha): 90%; Post-emergence action against VERPE in % ([21]; 320 g/ha, VERPE): 90%; Post-emergence action against VIOTR in % ([24]; 80 g/ha): 90%; Post-emergence action against VIOTR in % ([24]; 320 g/ha): 90%; Post-emergence action against ORYSA in % [22, 26]: 0%; Post-emergence action against ORYSA in % ([22]; 320 g/ha, effect in comparison to untreated controls): 0% |
| CCOC(=O)[C@@H](C)Oc1nn(-c2nc(F)ccc2F)c(-c2cncc(F)c2)c1Br [Example I-388] | 90% | 80% | 100% | 90% | 100% | 90% | 100% | 80% | 100% | 90% | 90% | 90% | 100% | 100% | 100% | 90% | 80% | 80% | 90% | 80% | Pre-emergence action against ECHCG in % ([5]; dosage 80 g/ha): 80%; Pre-emergence action against MATIN in % ([7]; dosage 80 g/ha): 90%; Pre-emergence action against MATIN in % ([7]; dosage 320 g/ha): 90%; Pre-emergence action against PHBPU in % ([8]; dosage 80 g/ha): 90%; Pre-emergence action against SETVI in % ([10]; dosage 80 g/ha): 90%; Pre-emergence action against SETVI in % ([10]; dosage 320 g/ha): 100%; Pre-emergence action against VERPE in % ([11]; dosage 80 g/ha): 90%; Post-emergence action against ABUTH in % ([13]; 320 g/ha): 80%; Post-emergence action against ALOMY in % ([14]; 320 g/ha): 80%; Post-emergence action against AVEFA in % ([16]; 320 g/ha): 80%; Post-emergence action against ECHCG in % ([17]; dosage 320 g/ha): 90%; Post-emergence action against LOLRI in % ([18]; dosage 320 g/ha): 80%; Post-emergence action against PHBPU in % ([19]; dosage 320 g/ha): 100%; Post-emergence action against SETVI in % ([20]; dosage 320 g/ha): 90%; Post-emergence action against VERPE in % ([21]; 320 g/ha, VERPE): 80%; Post-emergence action against VIOTR in % ([24]; 320 g/ha): 80% |
